Results reported in patent publication US12115176B2, “Methods and compositions relating to ClbP inhibition” (PRESIDENT AND FELLOWS OF HARVARD COLLEGE, priority 2021, dated 2024).
Entries after “also recorded” stand apart in the source; their conditions may differ.

Key:
Bifidobacterium longum = test: Bacterial MIC assay (broth dilution); type: cell-based; details: 15 h, read-out: MICs by compound
HeLa cells = test: HeLa cell survival assay; type: cell-based, human; details: all concentrations tested
Method: HeLa cells were maintained as described in the General Tissue Culture Methods section. After trypsinization and counting, cells were distributed in to the wells of a 96-well plate with media containing the indicated concentration of the synthetic compound and 1% DMSO (or DMSO alone) at 5000 cells per well. After 20 hours, cell viability was determined using the CellTiter-Glo® 3D Cell Viability Assay kit (Promega) following the manufacturer's instructions and measuring luminescence on a Bio-Tek Synergy HTX™ multimode plate reader.

[1] = test system: E. coli NC101 with mouse fecal community; test: ClbP inhibition in a microbial community; type: cell-based; details: E. coli NC101 plus C57BL/6J mouse fecal community, anaerobic, 1 μM 3, LC-MS
Method: ClbP inhibition in a microbial community. Mouse pellets were aseptically collected from cages and immediately stored at −80° C. until use. One 5 mL starter culture each of E. coli NC101 and E. coli NC101ΔclbP was started from frozen stocks in deoxygenated Brain-Heart Infusion media (BHI) inside an anaerobic chamber under a 95% N215% H2 atmosphere and incubated at 37° C. overnight. Mouse fecal pellets were defrosted in the anaerobic chamber and resuspended in BHI with 10 mL media/100 mg pellet mass. The fecal slurry was then centrifuged at 1000×g for 5 minutes to separate solids and the resulting supernatant was used as the media for all “+ community” conditions. Cultures were incubated in 500 μL volumes in triplicate in a deep-well plate under anaerobic conditions, with a 1:100 inoculum of the appropriate E. coli overnight for the “+E. coli” conditions. All samples contained a final concentration of 1% DMSO, with or without 1 μM inhibitor 3. After 20 hours at 37° C., samples were processed, and the concentration of N-myristoyl-D-asparagine quantified via LC-MS/MS as described above.

[2] = test system: purified plasmid DNA incubated with pks+ E. coli; test: Plasmid DNA crosslinking, denaturing gel electrophoresis
Method: In addition to blocking the metabolic indicators of colibactin biosynthesis, it was also assessed whether 3 could inhibit the genotoxic effects of colibactin on human cells at physiologically accessible concentrations. A previously described infection assay with HeLa cells and pks+E. coli which was modified to include a 1-hour preincubation of the inhibitor with the E. coli as well as inclusion of the inhibitor in the infection medium was used. […] Treatment with 3 was able to completely block this effect at concentrations as low as 5 nM (FIG. 4). It was also confirmed that 3 is not cytotoxic to human cell lines at concentrations up to 10 μM. […] In order to directly assess the impacts of 3 on colibactin's DNA crosslinking activity, purified plasmid DNA was incubated with pks^+ E. coli, then subjected to gel electrophoresis under denaturing conditions.

CC1(C)OB([C@@H](CC(N)=O)NC(=O)CCCc2ccccc2)OC1(C)C [Compound 3]
MIC (Bifidobacterium longum): > 200 µM | concentration without cytotoxicity to human cell lines (HeLa cells): > 10 µM | production of prodrug scaffold in a complex microbial community [1]: reduce the release of N-myristoyl-Asn; also recorded: fully suppressed production of the prodrug scaffold; also recorded: can selectively block colibactin biosynthesis; also recorded: can still effectively block colibactin production | DNA crosslinking activity [2]: can suppress DNA crosslinking activity
